Source: patent US20140288044A1, “COMPOSITIONS AND THERAPEUTIC USES OF IKK-RELATED KINASE EPSILON AND TANKBINDING KINASE 1 INHIBITORS” (Alzheimer's Institute of America, Inc., priority 2011, published 2014)

What follows are molecules tested against T1, IKKε (Homo sapiens, UniProt Q14164) (assay: In-vitro IKKε kinase assay (radiolabelled ATP, filterplate)). Settings: "sensitized" assay; read-out: IC50, inhibition of the kinase activity of IKKε.
T1 construct: His-tag (in-house Sf9 preparation) or GST-tag (purchased Invitrogen preparation); these are alternatives, not both on one protein; host or cells: Sf9 cells
T1 sequence (Q14164 1-716): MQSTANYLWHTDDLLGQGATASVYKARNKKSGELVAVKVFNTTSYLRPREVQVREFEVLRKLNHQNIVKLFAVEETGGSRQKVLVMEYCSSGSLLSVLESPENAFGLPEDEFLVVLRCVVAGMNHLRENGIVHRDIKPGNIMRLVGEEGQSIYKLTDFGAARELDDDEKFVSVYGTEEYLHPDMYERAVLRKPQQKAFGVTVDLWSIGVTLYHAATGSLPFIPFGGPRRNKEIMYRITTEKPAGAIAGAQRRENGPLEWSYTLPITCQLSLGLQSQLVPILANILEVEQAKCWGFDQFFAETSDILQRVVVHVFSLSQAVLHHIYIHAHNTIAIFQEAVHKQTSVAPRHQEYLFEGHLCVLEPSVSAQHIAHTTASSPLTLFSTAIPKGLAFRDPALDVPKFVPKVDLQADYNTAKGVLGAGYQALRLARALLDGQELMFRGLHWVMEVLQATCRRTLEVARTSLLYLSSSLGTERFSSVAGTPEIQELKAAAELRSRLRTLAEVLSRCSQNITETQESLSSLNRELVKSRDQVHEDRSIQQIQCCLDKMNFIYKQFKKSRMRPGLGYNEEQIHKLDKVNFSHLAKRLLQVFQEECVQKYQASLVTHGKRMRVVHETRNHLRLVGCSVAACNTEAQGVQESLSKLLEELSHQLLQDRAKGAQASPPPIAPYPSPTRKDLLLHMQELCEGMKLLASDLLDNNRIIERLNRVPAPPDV
Assay type: biochemical
Procedure: IKKε enzyme was produced as a His-tag fusion in Sf9 cells or purchased as a GST-tag fusion (Invitrogen, Carlsbad, Calif.). TBK1 enzyme was produced as a His-tag fusion in Sf9 cells. Kinase reactions were carried out in reaction buffer using myelin basic protein (Millipore, Ballerica, Mass.), casein or dephosphorylated casein (Sigma, St. Louis, Mo.) as substrate at an ATP concentration equal to twice the Km,ATP value for each enzyme, corresponding to 32 μM ATP for IKKε and 60 μM ATP for TBK1. Radiolabelled [γ^33]ATP (PerkinElmer, Waltham, Mass.) in the amount of […] (IKKe, “normal”) or 0.7 μCi (IKKε, “sensitized”) or 1.25 μCi (TBK1) was added to each assay. Final enzyme concentrations were 0.1 or 0.015 μg/ml (IKKε) and 0.1 or 0.02 μg/ml (TBK1) for the “normal” and “sensitized” assay, respectively, and “sensitized” assays were conducted using only dephosphorylated casein as substrate. Test compounds (or DMSO solvent as a control) were added prior to initiation of the reactions. Reactions were terminated after 30-45 minutes by adding 3% phosphoric acid. Terminated reactions were transferred to P-81 cellulose phosphate filterplates (Whatman, Inc., Piscataway, N.J.) and washed with 1% phosphoric acid on a vacuum apparatus. After air drying, scintillant (PerkinElmer, Waltham, Mass.) was added and the plates were read on a PerkinElmer TopCount NXT instrument. Counts were normalized to DMSO controls after background subtraction.
For `N#Cc1cc(-c2ccnc(Nc3ccnc(CN4CC(O)C4)c3)n2)ccc1OC1CCOCC1` [Example Compound 218, 5-[2-({2-[(3-Hydroxyazetidin-1-yl)methyl]pyridin-4-yl}amino)pyrimidin-4-yl]-2-(tetrahydro-2H-pyran-4-yloxy)benzonitrile], the IC50 was < 0.005 µM.
In the case of `N#Cc1cc(-c2ccnc(Nc3cncc(N4CCOCC4)n3)n2)ccc1OC1CCOCC1` [Example Compound 89, 5-(2-{[6-(Morpholin-4-yl)pyrazin-2-yl]amino}pyrimidin-4-yl)-2-(tetrahydro-2H-pyran-4-yloxy)benzonitrile], the IC50 is reported as < 0.005 µM.
`N#Cc1cc(-c2ccnc(Nc3ccnc(N4CC(O)C4)c3)n2)ccc1OCC1CC1` [Example Compound 241, 2-(Cyclopropylmethoxy)-5-(2-{[2-(3-hydroxyazetidin-1-yl)pyridin-4-yl]amino}pyrimidin-4-yl)benzonitrile] was tested, and the IC50 was < 0.005 µM.

Same assay, conditions: in-vitro IKKε kinase inhibition assays; given as 0.005 μM (5 nM); read-out: IKKε kinase inhibitory activity (IC50 value)
`N#Cc1cc(-c2ccnc(Nc3ccnc(CO)c3)n2)ccc1OC1CCOCC1` [Example Compound 66, 5-(2-{[2-(Hydroxymethyl)pyridin-4-yl]amino}pyrimidin-4-yl)-2-(tetrahydro-2H-pyran-4-yloxy)benzonitrile] was tested, and the IC50 was < 0.005 µM.
For `N#Cc1cc(-c2ccnc(Nc3cncc(N4CCOCC4)n3)n2)ccc1OC1CCOCC1` [Example Compound 89, 5-(2-{[6-(Morpholin-4-yl)pyrazin-2-yl]amino}pyrimidin-4-yl)-2-(tetrahydro-2H-pyran-4-yloxy)benzonitrile], the IC50 was < 0.005 µM.

Each molecule was assayed on IKKε-mediated phosphorylation of IRF3 (assay: ELISA for in-situ phosphorylation of IRF3 (phospho-Ser396) in HEK293T cells cotransfected with IRF3 and IKKε). Settings: Homo sapiens, HEK-293T, 20 h, HEK293T cells, 20 hours; range given from about 1 μM to about 250 nM; read-out: IC50, in-situ IKKε-mediated phosphorylation of IRF3.
Assay type: cell-based
Procedure: HEK293T cells were cotransfected in a 10-cm dish with IRF3 and IKKε expression plasmids using Lipofectamine 2000 (Invitrogen, Carlsbad, Calif.). The following day, cells were replated at 20,000 per well in 96-well plates and treated with test compounds (compounds according to Formulae I and/or II) for 20 hours. Cell lysates were prepared and analyzed using an ELISA for phospho-Ser396 (anti-IRF3 capture antibody, Santa Cruz Biotechnology, Inc., Santa Cruz, Calif.; anti-p-Ser396 IRF3 detection antibody, Cell Signaling, Danvers, Mass.). pIRF3 levels in compound treated cells were normalized to DMSO treated cells (no compound). Cell viability was assayed in a parallel set of plates to monitor cytotoxic effects of the test compounds (CellTiter-Glo, Promega, Inc., Madison, Wis.). TBK1 activity was tested by Western blotting using a phospho-specific IRF7 antibody. Similar to above, HEK293T cells were transfected with IRF7 and TBK1 expression plasmids. Cells were seeded in 12-well plates at 150,000 per well and treated overnight with test compounds. Protein lysates were prepared and processed for Western blotting followed by detection using a phosphor-Ser477/Ser479 IRF7 antibody (BD Biosciences, San Jose, Calif.)
`COc1cc(-c2ccnc(Nc3ccc(CN4CCC4)nc3)n2)cc(C#N)c1OC1CCOCC1` [Example Compound 115, 5-(2-{[6-(Azetidin-1-ylmethyl)pyridin-3-yl]amino}pyrimidin-4-yl)-3-methoxy-2-(tetrahydro-2H-pyran-4-yloxy)benzonitrile] gave an IC50 of 0.25 to 1 µM.
`CNCc1cncc(Nc2nccc(-c3ccc(OC4CCOCC4)c(C#N)c3)n2)c1` [Example Compound 203, 5-[2-({5-[(Methylamino)methyl]pyridin-3-yl}amino)pyrimidin-4-yl]-2-(tetrahydro-2H-pyran-4-yloxy)benzonitrile] showed an IC50 of 0.25 to 1 µM.
`COCCNCc1ccc(Nc2nccc(-c3ccc(OC4CCOCC4)c(C#N)c3)n2)cn1` [Example Compound 50, 5-{2-[(6-{[(2-Methoxyethyl)amino]methyl}pyridin-3-yl)amino]pyrimidin-4-yl}-2-(tetrahydro-2H-pyran-4-yloxy)benzonitrile] was tested, and the IC50 was 0.25 to 1 µM.

Same assay, conditions: Homo sapiens, HEK-293T, 20 h, HEK293T cells, 20 hours; read-out: IC50, in-situ IKKε-mediated phosphorylation of IRF3
With `COC1CCN(c2cc(Nc3nccc(-c4ccc(OC5CCOCC5)c(C#N)c4)n3)ccn2)C1` (stereo not shown) [Example Compound 181, 5-(2-{[2-(3-Methoxypyrrolidin-1-yl)pyridin-4-yl]amino}pyrimidin-4-yl)-2-(tetrahydro-2H-pyran-4-yloxy)benzonitrile] the IC50 was 1 to 5 µM.
Molecule `CN(C)c1ccc(Nc2nccc(-c3ccc(O[C@@H]4CCN(C(=O)CO)C4)c(C#N)c3)n2)cn1` [Example Compound 124, 5-(2-{[6-(Dimethylamino)pyridin-3-yl]amino}pyrimidin-4-yl)-2-{[1-(hydroxyacetyl)pyrrolidin-3-yl]oxy}benzonitrile] has an IC50 of 0.1 to 0.25 µM.
Work on `Cc1ccc(Nc2nccc(-c3ccc(NC(=O)C(C)C)c(C#N)c3)n2)cn1` [Example Compound 136, N-(2-Cyano-4-{2-[(6-methylpyridin-3-yl)amino]pyrimidin-4-yl}phenyl)-2-methylpropanamide] yielded an IC50 of 1 to 5 µM.
`N#Cc1cc(-c2ccnc(Nc3cncc(CN4CCN(CCO)CC4)c3)n2)ccc1OC1CCOCC1` [Example Compound 186, 5-{2-[(5-{[4-(2-Hydroxyethyl)piperazin-1-yl]methyl}pyridin-3-yl)amino]pyrimidin-4-yl}-2-(tetrahydro-2H-pyran-4-yloxy)benzonitrile] showed an IC50 of 1 to 5 µM.
With `CN(C)c1ccc(Nc2nccc(-c3ccc(OC4CCOCC4)c(C#N)c3)n2)cn1` [Example Compound 152, 5-(2-{[6-(Dimethylamino)pyridin-3-yl]amino}pyrimidin-4-yl)-2-(tetrahydro-2H-pyran-4-yloxy)benzonitrile] the IC50 was 0.1 to 0.25 µM.
`N#Cc1cc(-c2ccnc(Nc3ccc(C4CC4)nc3)n2)ccc1NC(=O)C1CC1` [Example Compound 140, N-(2-Cyano-4-{2-[(6-cyclopropylpyridin-3-yl)amino]pyrimidin-4-yl}phenyl)cyclopropanecarboxamide] was tested, and the IC50 was < 0.1 µM.
With `CN1CCN(C(=O)c2ncc(Nc3nccc(-c4ccc(OC5CCOCC5)c(C#N)c4)n3)n2C)CC1` [Example Compound 103, 5-[2-({1-Methyl-2-[(4-methylpiperazin-1-yl)carbonyl]-1H-imidazol-5-yl}amino)pyrimidin-4-yl]-2-(tetrahydro-2H-pyran-4-yloxy)benzonitrile] the IC50 was < 0.1 µM.
Molecule `Cn1cc(Nc2nccc(-c3ccc(OC4CCOCC4)c(C#N)c3)n2)cn1` [Example Compound 97, 5-{2-[(1-Methyl-1H-pyrazol-4-yl)amino]pyrimidin-4-yl}-2-(tetrahydro-2H-pyran-4-yloxy)benzonitrile] has an IC50 of 1 to 5 µM.
Molecule `CN(C)c1ccc(-c2ccc(Nc3nccc(-c4ccc(OC5CCOCC5)c(C#N)c4)n3)cn2)cn1` [Example Compound 169, 5-(2-{[6′-(Dimethylamino)-2,3′-bipyridin-5-yl]amino}pyrimidin-4-yl)-2-(tetrahydro-2H-pyran-4-yloxy)benzonitrile] has an IC50 of 1 to 5 µM.
`CN(C)Cc1cncc(Nc2nccc(-c3ccc(OC4CCOCC4)c(C#N)c3)n2)c1` [Example Compound 201, 5-[2-({5-[(Dimethylamino)methyl]pyridin-3-yl}amino)pyrimidin-4-yl]-2-(tetrahydro-2H-pyran-4-yloxy)benzonitrile] showed an IC50 of 0.1 to 0.25 µM.
With `COc1cc(-c2ccnc(Nc3ccc(CN4CC(OC)C4)nc3)n2)cc(C#N)c1OC1CCOCC1` [Example Compound 116, 3-Methoxy-5-[2-({6-[(3-methoxyazetidin-1-yl)methyl]pyridin-3-yl}amino)pyrimidin-4-yl]-2-(tetrahydro-2H-pyran-4-yloxy)benzonitrile] the IC50 was 0.1 to 0.25 µM.
For `N#Cc1cc(-c2ccnc(Nc3ccnc(C(=O)N4CCCC4)c3)n2)ccc1OC1CCN(C(=O)CO)CC1` [Example Compound 233, 2-{[1-(Hydroxyacetyl)piperidin-4-yl]oxy}-5-(2-{[2-(pyrrolidin-1-ylcarbonyl)pyridin-4-yl]amino}pyrimidin-4-yl)benzonitrile], the IC50 was 1 to 5 µM.
`N#Cc1cc(-c2ccnc(Nc3cncc(C(=O)N4CCN(CCO)CC4)c3)n2)ccc1OC1CCOCC1` [Example Compound 174, 5-{2-[(5-{[4-(2-Hydroxyethyl)piperazin-1-yl]carbonyl}pyridin-3-yl)amino]pyrimidin-4-yl}-2-(tetrahydro-2H-pyran-4-yloxy)benzonitrile] was tested, and the IC50 was 1 to 5 µM.
`COC1CN(C(=O)Cc2csc(Nc3nccc(-c4ccc(OC5CCOCC5)c(C#N)c4)n3)n2)C1` [Example Compound 105, 5-[2-({4-[2-(3-Methoxyazetidin-1-yl)-2-oxoethyl]-1,3-thiazol-2-yl}amino)pyrimidin-4-yl]-2-(tetrahydro-2H-pyran-4-yloxy)benzonitrile] was tested, and the IC50 was 1 to 5 µM.
